Measured values as given in US20100120703A1, “COMPOSITIONS AND METHODS FOR TREATING CANCER” (priority 2007, published 2010).

How the values were obtained:
HepG2 cells = experiment: cDNA microarray, drug toxicity and metabolism genes; format: cell-based, human; settings: HepG2 cells before and after SIN treatment
Method: The advancement of nucleic acid array technology has made it possible to analyze the expression of multiple genes in a single experiment. The cDNA Microarray is used to characterize gene expression associated with a specific biological pathway in a more comprehensive and cost effective manner. The genes on the cDNA microarray membrane are targeted to the drug toxicity and metabolism pathways. It is a useful approach to study the biological activities of SIN.
HepG2 cells were treated and harvested as described in the foregoing examples. The cell pellet was dissolved in 500 μl TRIzol® reagent (Invitrogen, CA, USA). The whole solution was allowed to stand at room temperature for 5 minutes. The solution was centrifuged at 14,000 rpm for 10 minutes at 4° C. The supernatant was collected in a new tube with 100 μl chloroform. After shaking and incubation for 10 minutes at room temperature, the solution was centrifuged at 14,000 rpm for 15 minutes at 4° C. Recentrifugation was necessary if the layer was not clear. The upper aqueous layer was carefully transferred into a new tube with 250 μl isopropanol. After shaking, the tube was allowed to stand at room temperature for 10 minutes for RNA precipitation. […]
cRNA purification was performed with SuperArray Array Grade cRNA Cleanup Kit. […] The quality and quantity of the cRNA product were determined as described previously. […]

human colon cancer cells = settings: cited from earlier work
Sprague Dawley (SD) rats = experiment: DEN/CCl4-induced hepatoma in rats, progression stage: liver observation and weight; format: in vivo, rat; settings: 15 mg/kg oral daily for 24 weeks
Text: The effect of SIN on progression stage of cancer development was studied. FIG. 20 summarized the protocol applied to rats. The amounts of rats and grouping method were all the same as in the promotion stage experiment.
Rats in the negative control group received weekly intraperitoneal (i.p.) injection of DMSO for the first 2 weeks and then Corn Oil for 28 weeks. Rats in the positive control and SIN-treatment groups both received weekly intraperitoneal (i.p.) injection of DEN for the first 2 weeks and then CCl4 for 28 weeks. Two weeks of fasting were inserted between DEN treatment and CCl4 treatment. Starting from 33rd week, negative and positive control groups received oral administration of water once a day. Sinigrin with dosage 15 mg/kg was administered orally to the SIN-treatment group daily for 24 weeks. After treatment, the rats were killed. Blood and liver were collected and processed as described in the foregoing examples.

C=CC/C(=N/OS(=O)(=O)[O-])S[C@@H]1OC(CO)[C@@H](O)C(O)C1O.[K+] (stereo partly shown) [SIN, sinigrin]
gene expression in drug toxicity and metabolism pathways (HepG2 cells): many genes in drug toxicity and metabolism pathways were differentially expressed | action on apoptosis and cell proliferation (human colon cancer cells): might be apoptosis- and cell proliferation-independent | percentage of liver weight and liver weight index vs negative group (Sprague Dawley (SD) rats): only slightly higher | visible tumors on liver (direct observation) (Sprague Dawley (SD) rats): few visible tumors
